The results in this text go back to patent US11780841B2, “3,6-methano-1H-pyrrolo[3,2-b]pyridine and 3,6-methano-1H-pyrrolo[3,2-c]pyridine compounds and medicaments using same” (priority 2018, dated 2023).

Where only a bound is given, the exact number is not on record here.

The experiment relates to recombinant rabies virus 1088 strain expressing Gaussia Luciferase (GLuc) (1088/GLuc). The format is cell-based. The settings on record: read-out: Anti-rabies activity.

Regarding `CC(C)CCN1C[C@H]2C[C@]3(C(=O)NCCO)NC[C@H]2[C@H]1[C@H]3Cc1cccc2ccccc12` [IF-611], the IC50 was 10 to 30 µM.
The same measure for `O=C(NCCO)[C@@]12C[C@@H]3CN(CCc4ccccc4)[C@@H]([C@@H]3CN1)[C@H]2Cc1cccc2ccccc12` [IF-612]: 10 to 30 µM.
For the molecule `CC(C)CC[C@@H]1[C@@H]2[C@@H]3CN[C@@]1(C(=O)NCCO)C[C@@H]3CN2Cc1cccc2ccccc12` [IF-613], the IC50 was in the range of 10 to 30 µM.
On to `O=C(NCCO)[C@@]12C[C@@H]3CN(Cc4cccc5ccccc45)[C@@H]([C@@H]3CN1)[C@H]2Cc1cccc2ccccc12` [IF-614], for which the IC50 fell in the range of 10 to 30 µM.
For `O=C(NCCO)[C@@]12C[C@@H]3CN(CC4CCCCC4)[C@@H]([C@@H]3CN1)[C@H]2Cc1cccc2ccccc12` [IF-619] the value was 10 to 30 µM; for `O=C(NCCO)[C@@]12C[C@@H]3CN(Cc4ccc(F)cc4)[C@@H]([C@@H]3CN1)[C@H]2Cc1cccc2ccccc12` [IF-620], less than 5 µM.
The same measure for `O=C(NCCO)[C@@]12C[C@@H]3CN(Cc4ccccc4)[C@@H]([C@@H]3CN1)[C@H]2Cc1cccc2ccccc12` [IF-624]: 10 to 30 µM.
For `CC(C)CCN1C[C@H]2C[C@]3(C(=O)NCC(C)C)NC[C@H]2[C@H]1[C@H]3CCc1ccccc1` [IF-635] the value was 10 to 30 µM; for `CC(C)C[C@@H]1[C@@H]2[C@@H]3CN[C@@]1(C(=O)NCc1ccccc1)C[C@@H]3CN2CCc1ccccc1` [IF-639], less than 5 µM.
On to `O=C(NCc1ccccc1)[C@@]12C[C@@H]3CN(CCc4ccccc4)[C@@H]([C@@H]3CN1)[C@H]2Cc1ccc(O)cc1` [IF-640], for which the IC50 fell in the range of 10 to 30 µM.
The same measure for `CC(C)CNC(=O)[C@@]12C[C@@H]3CN(CCc4ccccc4)[C@@H]([C@@H]3CN1)[C@H]2Cc1ccccc1` [IF-641]: less than 5 µM; for `CC(C)C[C@@H]1[C@@H]2[C@@H]3CN[C@@]1(C(=O)NCc1ccccc1)C[C@@H]3CN2CC1CCCCC1` [IF-644]: less than 5 µM.
The same measure for `O=C(NCc1ccccc1)[C@@]12C[C@@H]3CN(CC4CCCCC4)[C@@H]([C@@H]3CN1)[C@H]2Cc1ccc(O)cc1` [IF-645]: 10 to 30 µM; for `CC(C)CNC(=O)[C@@]12C[C@@H]3CN(CC4CCCCC4)[C@@H]([C@@H]3CN1)[C@H]2Cc1cccc2ccccc12` [IF-646]: less than 5 µM; for `O=C(NCc1ccccc1)[C@@]12C[C@@H]3CN(Cc4ccc(F)cc4)[C@@H]([C@@H]3CN1)[C@H]2Cc1ccccc1` [IF-649]: less than 5 µM.
Turning to `CC(C)C[C@@H]1[C@@H]2[C@@H]3CN[C@@]1(C(=O)NCc1ccccc1)C[C@@H]3CN2Cc1ccc(F)cc1` [IF-650], the IC50 was less than 5 µM.
With `CC(C)CNC(=O)[C@@]12C[C@@H]3CN(Cc4ccc(F)cc4)[C@@H]([C@@H]3CN1)[C@H]2CCc1ccccc1` [IF-652], the IC50 was less than 5 µM.
For `CC(C)CNC(=O)[C@@]12C[C@@H]3CN(Cc4ccc(F)cc4)[C@@H]([C@@H]3CN1)[C@H]2Cc1ccccc1` [IF-653] the value was 10 to 30 µM; for `CC(C)CNC(=O)[C@@]12C[C@@H]3CN(Cc4ccc(F)cc4)[C@@H]([C@@H]3CN1)[C@H]2CC(C)C` [IF-654], less than 5 µM.
`CC(C)CCNC(=O)[C@@]12C[C@@H]3CN(CCO)[C@@H]([C@@H]3CN1)[C@H]2Cc1ccccc1` [IF-656]: the IC50 fell in the range of 10 to 30 µM.
`CC(C)CCNC(=O)[C@@]12C[C@@H]3CN(CCc4ccccc4)[C@@H]([C@@H]3CN1)[C@H]2CC(C)C` [IF-657]: the IC50 is less than 5 µM.
As for `CC(C)CCNC(=O)[C@@]12C[C@@H]3CN(CC4CCCCC4)[C@@H]([C@@H]3CN1)[C@H]2Cc1ccccc1` [IF-658], the IC50 was less than 5 µM.
For `CC(C)CCNC(=O)[C@@]12C[C@@H]3CN(CC4CCCCC4)[C@@H]([C@@H]3CN1)[C@H]2CC(C)C` [IF-659], the IC50 was in the range of 10 to 30 µM.
The same measure for `CC(C)CCNC(=O)[C@@]12C[C@@H]3CN(CCO)[C@@H]([C@@H]3CN1)[C@H]2Cc1cccc2ccccc12` [IF-660]: 10 to 30 µM; for `CC(C)CCNC(=O)[C@@]12C[C@@H]3CN(Cc4ccccc4)[C@@H]([C@@H]3CN1)[C@H]2Cc1ccccc1` [IF-665]: less than 5 µM.
For the molecule `CC(C)CNC(=O)[C@@]12C[C@@H]3CN(Cc4ccccc4)[C@@H]([C@@H]3CN1)[C@H]2CCc1ccccc1` [IF-670], the IC50 was less than 5 µM.
The same measure for `CC(C)CCNC(=O)[C@@]12C[C@@H]3CN(CC(C)C)[C@@H]([C@@H]3CN1)[C@H]2CCc1ccccc1` [IF-673]: less than 5 µM; for `CC(C)CCNC(=O)[C@@]12C[C@@H]3CN(CC(C)C)[C@@H]([C@@H]3CN1)[C@H]2Cc1cccc2ccccc12` [IF-674]: 10 to 30 µM; for `CC(C)CC[C@@H]1[C@@H]2[C@@H]3CN[C@@]1(C(=O)NCc1ccccc1)C[C@@H]3CN2CC(C)C` [IF-675]: less than 5 µM.
For `CC(C)CNC(=O)[C@@]12C[C@@H]3CN(CC(C)C)[C@@H]([C@@H]3CN1)[C@H]2CCc1ccccc1` [IF-679] the value was less than 5 µM; for `CC(C)CNC(=O)[C@@]12C[C@@H]3CN(CC(C)C)[C@@H]([C@@H]3CN1)[C@H]2Cc1cccc2ccccc12` [IF-680], 10 to 30 µM.
For the molecule `CC(C)CCNC(=O)[C@@]12C[C@@H]3CN(Cc4ccc(O)cc4)[C@@H]([C@@H]3CN1)[C@H]2Cc1cccc2ccccc12` [IF-684], the IC50 lay in the range of 10 to 30 µM.
The same measure for `CC(C)CCNC(=O)[C@@]12C[C@@H]3CN(Cc4ccccc4)[C@@H]([C@@H]3CN1)[C@H]2CC(C)C` [IF-691]: 10 to 30 µM.
The same measure for `CCCCCCNC(=O)[C@@]12C[C@@H]3CN(Cc4ccccc4)[C@@H]([C@@H]3CN1)[C@H]2Cc1ccc(O)cc1` [IF-692]: less than 5 µM.
The same measure for `CC(C)C[C@@H]1[C@@H]2[C@@H]3CN[C@@]1(C(=O)NCCC(N)=O)C[C@@H]3CN2CCc1ccccc1` [IF-699]: 10 to 30 µM; for `CC(C)CCN1C[C@H]2C[C@]3(C(=O)NCc4cccc5ccccc45)NC[C@H]2[C@H]1[C@H]3CC(C)C` [IF-705]: less than 5 µM.
On to `CC(C)CCN1C[C@H]2C[C@]3(C(=O)NCc4cccc5ccccc45)NC[C@H]2[C@H]1[C@H]3Cc1ccc(O)cc1` [IF-706], for which the IC50 was less than 5 µM.
On to `CC(C)CCNC(=O)[C@@]12C[C@@H]3CN(CCc4ccccc4)[C@@H]([C@@H]3CN1)[C@H]2Cc1ccc(O)cc1` [IF-707], for which the IC50 was less than 5 µM.
Turning to `O=C(NCCc1ccccc1)[C@@]12C[C@@H]3CN(Cc4cccc5ccccc45)[C@@H]([C@@H]3CN1)[C@H]2Cc1ccc(O)cc1` [IF-708], the IC50 is less than 5 µM.
As for `CC(C)CCNC(=O)[C@@]12C[C@@H]3CN(CC4CCCCC4)[C@@H]([C@@H]3CN1)[C@H]2Cc1ccc(O)cc1` [IF-709], the IC50 lay in the range of 10 to 30 µM.
On to `O=C(NCCc1ccccc1)[C@@]12C[C@@H]3CN(CC4CCCCC4)[C@@H]([C@@H]3CN1)[C@H]2Cc1ccccc1` [IF-710], for which the IC50 is less than 5 µM.
In the case of `CC(C)C[C@@H]1[C@@H]2[C@@H]3CN[C@@]1(C(=O)NCCc1ccccc1)C[C@@H]3CN2CC1CCCCC1` [IF-711], the IC50 fell in the range of 10 to 30 µM.
Take `CC(C)C[C@@H]1[C@@H]2[C@@H]3CN[C@@]1(C(=O)NCCc1ccccc1)C[C@@H]3CN2Cc1ccc(F)cc1` [IF-714]: the IC50 is less than 5 µM.
Regarding `O=C(NCCc1ccccc1)[C@@]12C[C@@H]3CN(Cc4ccc(F)cc4)[C@@H]([C@@H]3CN1)[C@H]2Cc1ccc(O)cc1` [IF-715], the IC50 was less than 5 µM.
For `CC(C)CC[C@@H]1[C@@H]2[C@@H]3CN[C@@]1(C(=O)NCCc1ccccc1)C[C@@H]3CN2CC1CCCCC1` [IF-717] the value was less than 5 µM; for `O=C(NCCc1ccccc1)[C@@]12C[C@@H]3CN(CC4CCCCC4)[C@@H]([C@@H]3CN1)[C@H]2Cc1cccc2ccccc12` [IF-718], less than 5 µM; for `CC(C)C[C@@H]1[C@@H]2[C@@H]3CN[C@@]1(C(=O)NCCc1ccccc1)C[C@@H]3CN2Cc1ccccc1` [IF-721], less than 5 µM.
`O=C(NCCc1ccccc1)[C@@]12C[C@@H]3CN(Cc4ccccc4)[C@@H]([C@@H]3CN1)[C@H]2Cc1ccc(O)cc1` [IF-722]: the IC50 is less than 5 µM.
As to `CC(C)CC[C@@H]1[C@@H]2[C@@H]3CN[C@@]1(C(=O)NCCc1ccccc1)C[C@@H]3CN2Cc1ccccc1` [IF-723], the IC50 lay within 10 to 30 µM.
For `CC(C)C[C@@H]1[C@@H]2[C@@H]3CN[C@@]1(C(=O)NCCc1ccccc1)C[C@@H]3CN2CC(C)C` [IF-725] the value was 10 to 30 µM.
On to `CC(C)C[C@@H]1[C@@H]2[C@@H]3CN[C@@]1(C(=O)NCc1cccc4ccccc14)C[C@@H]3CN2CC(C)C` [IF-726], for which the IC50 lay within 10 to 30 µM.
Take `CC(C)CC[C@@H]1[C@@H]2[C@@H]3CN[C@@]1(C(=O)NCCc1ccccc1)C[C@@H]3CN2CC(C)C` [IF-727]: the IC50 is less than 5 µM.
The same measure for `CC(C)CCN1C[C@H]2C[C@]3(C(=O)NCc4ccccc4)NC[C@H]2[C@H]1[C@H]3CC(C)C` [IF-733]: less than 5 µM; for `CC(C)CCN1C[C@H]2C[C@]3(C(=O)NCC(C)C)NC[C@H]2[C@H]1[C@H]3Cc1cccc2ccccc12` [IF-734]: less than 5 µM.
With `CC(C)CCN1C[C@H]2C[C@]3(C(=O)NCC(C)C)NC[C@H]2[C@H]1[C@H]3Cc1ccccc1` [IF-735], the IC50 was in the range of 10 to 30 µM.
The same measure for `CC(C)CNC(=O)[C@@]12C[C@@H]3CN(CCc4ccccc4)[C@@H]([C@@H]3CN1)[C@H]2CC(C)C` [IF-738]: 10 to 30 µM; for `CC(C)CNC(=O)[C@@]12C[C@@H]3CN(Cc4cccc5ccccc45)[C@@H]([C@@H]3CN1)[C@H]2CC(C)C` [IF-739]: less than 5 µM; for `CC(C)CC[C@@H]1[C@@H]2[C@@H]3CN[C@@]1(C(=O)NCc1ccccc1)C[C@@H]3CN2CC1CCCCC1` [IF-740]: 10 to 30 µM.
For `CC(C)CNC(=O)[C@@]12C[C@@H]3CN(CC4CCCCC4)[C@@H]([C@@H]3CN1)[C@H]2CC(C)C` [IF-742] the value was 10 to 30 µM; for `CC(C)CC[C@@H]1[C@@H]2[C@@H]3CN[C@@]1(C(=O)NCc1ccccc1)C[C@@H]3CN2Cc1ccc(F)cc1` [IF-743], 10 to 30 µM; for `CC(C)CCNC(=O)[C@@]12C[C@@H]3CN(CCc4ccccc4)[C@@H]([C@@H]3CN1)[C@H]2Cc1ccccc1` [IF-744], less than 5 µM.
The same measure for `CC(C)CN1C[C@H]2C[C@]3(C(=O)NCc4ccccc4)NC[C@H]2[C@H]1[C@H]3Cc1cccc2ccccc12` [IF-753]: 10 to 30 µM.
